This note sets out measurements from ChEMBL document CHEMBL1142594, “Antioxidative constituents of Etlingera elatior” (J Nat Prod, 2005).

The experiment is described as follows: Antioxidant activity assessed as inhibition of lipid peroxidation at 300 uM by ferric thiocyanate method. Type of experiment: functional.
Usually inhibition stands for the percentage by which the read-out fell short of the control. Regarding `COc1cc(/C=C/C(O)=C/C(=O)/C=C/c2ccc(O)cc2)ccc1O`, the inhibition came out at 92.5%.

Consider `O=C(/C=C/C=C/c1ccc(O)cc1)/C=C/c1ccc(O)cc1`, for which the inhibition turned out to be 92.1%.

Consider `Cc1c(C)c2c(c(C)c1O)CC[C@@](C)(CCC[C@H](C)CCC[C@H](C)CCCC(C)C)O2`, for which the inhibition stood at 69.5%.

Regarding `O=C(/C=C/C=C/C=C/c1ccc(O)cc1)c1ccc(O)cc1`, the inhibition is 93.7%.
